What all share (format): biochemical
Assay [1] concerns the target T1, FLT3 (Homo sapiens, UniProt P36888).
T1 sequence (P36888 27-993): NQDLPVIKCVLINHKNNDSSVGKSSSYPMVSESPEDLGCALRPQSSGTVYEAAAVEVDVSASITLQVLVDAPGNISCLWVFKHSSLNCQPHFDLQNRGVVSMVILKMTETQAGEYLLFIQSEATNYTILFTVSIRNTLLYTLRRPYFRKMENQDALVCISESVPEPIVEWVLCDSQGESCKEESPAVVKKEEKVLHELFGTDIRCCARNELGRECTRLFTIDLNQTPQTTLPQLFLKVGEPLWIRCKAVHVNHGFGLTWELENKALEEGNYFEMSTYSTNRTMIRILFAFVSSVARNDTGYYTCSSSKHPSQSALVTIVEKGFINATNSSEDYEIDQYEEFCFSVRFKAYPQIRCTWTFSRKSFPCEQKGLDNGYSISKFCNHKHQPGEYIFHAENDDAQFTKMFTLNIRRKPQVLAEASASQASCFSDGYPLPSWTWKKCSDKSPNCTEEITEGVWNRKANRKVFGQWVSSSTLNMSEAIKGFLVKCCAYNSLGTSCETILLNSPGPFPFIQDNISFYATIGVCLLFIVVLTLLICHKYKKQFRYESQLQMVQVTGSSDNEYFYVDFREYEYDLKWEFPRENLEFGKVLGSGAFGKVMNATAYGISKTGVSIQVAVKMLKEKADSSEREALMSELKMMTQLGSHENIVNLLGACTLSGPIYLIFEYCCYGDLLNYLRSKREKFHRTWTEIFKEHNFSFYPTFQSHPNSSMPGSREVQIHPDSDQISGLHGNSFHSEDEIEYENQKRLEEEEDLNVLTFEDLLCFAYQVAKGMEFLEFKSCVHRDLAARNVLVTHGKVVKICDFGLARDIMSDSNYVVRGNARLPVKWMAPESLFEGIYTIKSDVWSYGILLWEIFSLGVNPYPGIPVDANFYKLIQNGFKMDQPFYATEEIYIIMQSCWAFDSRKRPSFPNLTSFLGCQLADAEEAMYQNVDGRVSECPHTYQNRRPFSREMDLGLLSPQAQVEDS
Put plainly: FLT3 kinase assay. The conditions noted are these: ATP 200 μM; FLT3 4.5 nM; Caliper LabChip 3000. How it is done: (§1) The assays were performed in U-bottom 384-well plates. The final assay volume was 30 μl prepared from 15 μl additions of enzyme and substrates (fluoresceinated FLT3 substrate peptide and ATP) and test compounds in assay buffer (100 mM HEPES pH 7.4, 10 mM MgCl2, 0.015% Brij35 and 4 mM DTT). The reaction was initiated by the combination of FLT3 with substrates and test compounds. The reaction was incubated at room temperature for 60 min. and terminated by adding 30 μl of 35 mM EDTA to each sample. The reaction mixture was analyzed on the Caliper LabChip 3000 by electrophoretic separation of the fluorescent substrate and phosphorylated product. Inhibition data were calculated by comparison to no enzyme control reactions for 100% inhibition and vehicle-only reactions for 0% inhibition. The final concentration of reagents in the assays is ATP, 200 μM, FL-peptide, 1.5 μM; FLT3, 4.5 nM and DMSO, 1.6%. Dose response curves were generated to determine the concentration required inhibiting 50% of kinase activity (IC50). Compounds were dissolved at 10 mM in dimethylsulfoxide (DMSO) and evaluated at eleven concentrations, each in duplicate. IC50 values were derived by non-linear regression analysis.

Assay [2] addresses IGF1-receptor (Homo sapiens, UniProt P08069). Put plainly: IGF1-Receptor Tyrosine Kinase Assay. The following applies: ATP 25 μM; IGF1-Receptor 14 nM; Caliper LabChip 3000; read-out: IGF1R IC50. The protocol:
D. IGF1-Receptor Tyrosine Kinase Assay
as §1, with “(fluoresceinated IGF1R” for “(fluoresceinated FLT3”, “mM MnCl2,” for “mM MgCl2,”, “of IGF1-receptor” for “of FLT3”, “ATP, 25 μM;” for “ATP, 200 μM,”, “μM; IGF1-Receptor, 14 nM;” for “μM; FLT3, 4.5 nM”, “regression analysis” for “regression analysis.”

Assay [3] deals with GST-Met (Homo sapiens, UniProt P08581). Put plainly: Met Kinase Assay. The following applies: 1 μM ATP; 33P γ-ATP, poly(Glu/Tyr); 1 h at 30° C. The protocol: Kinase reactions consisted of 0.75 ng of baculovirus expressed GST-Met, 3 ug poly(Glu/Tyr) (Sigma), 0.12 μCi 33P γ-ATP, 1 μM ATP in 30 μl kinase buffer (20 mm TRIS-C1, 5 mM MnCl2, 0.1 mg/ml BSA, 0.5 mM DTT). Reactions were incubated for 1 h at 30° C. and stopped by the addition of cold trichloroacetic acid (TCA) to a final concentration 8%. TCA precipitates were collected onto GF/C unifilter plates using a Filtermate universal harvester and the filters were quantitated using a TopCount 96-well liquid scintillation counter. Dose response curves were generated to determine the concentration required to inhibit 50% of kinase activity (IC50). Compounds were dissolved at 10 mM in dimethylsulfoxide (DMSO) and evaluated at seven concentrations, each in triplicate.
Sequence of GST-Met (P08581 25-1390): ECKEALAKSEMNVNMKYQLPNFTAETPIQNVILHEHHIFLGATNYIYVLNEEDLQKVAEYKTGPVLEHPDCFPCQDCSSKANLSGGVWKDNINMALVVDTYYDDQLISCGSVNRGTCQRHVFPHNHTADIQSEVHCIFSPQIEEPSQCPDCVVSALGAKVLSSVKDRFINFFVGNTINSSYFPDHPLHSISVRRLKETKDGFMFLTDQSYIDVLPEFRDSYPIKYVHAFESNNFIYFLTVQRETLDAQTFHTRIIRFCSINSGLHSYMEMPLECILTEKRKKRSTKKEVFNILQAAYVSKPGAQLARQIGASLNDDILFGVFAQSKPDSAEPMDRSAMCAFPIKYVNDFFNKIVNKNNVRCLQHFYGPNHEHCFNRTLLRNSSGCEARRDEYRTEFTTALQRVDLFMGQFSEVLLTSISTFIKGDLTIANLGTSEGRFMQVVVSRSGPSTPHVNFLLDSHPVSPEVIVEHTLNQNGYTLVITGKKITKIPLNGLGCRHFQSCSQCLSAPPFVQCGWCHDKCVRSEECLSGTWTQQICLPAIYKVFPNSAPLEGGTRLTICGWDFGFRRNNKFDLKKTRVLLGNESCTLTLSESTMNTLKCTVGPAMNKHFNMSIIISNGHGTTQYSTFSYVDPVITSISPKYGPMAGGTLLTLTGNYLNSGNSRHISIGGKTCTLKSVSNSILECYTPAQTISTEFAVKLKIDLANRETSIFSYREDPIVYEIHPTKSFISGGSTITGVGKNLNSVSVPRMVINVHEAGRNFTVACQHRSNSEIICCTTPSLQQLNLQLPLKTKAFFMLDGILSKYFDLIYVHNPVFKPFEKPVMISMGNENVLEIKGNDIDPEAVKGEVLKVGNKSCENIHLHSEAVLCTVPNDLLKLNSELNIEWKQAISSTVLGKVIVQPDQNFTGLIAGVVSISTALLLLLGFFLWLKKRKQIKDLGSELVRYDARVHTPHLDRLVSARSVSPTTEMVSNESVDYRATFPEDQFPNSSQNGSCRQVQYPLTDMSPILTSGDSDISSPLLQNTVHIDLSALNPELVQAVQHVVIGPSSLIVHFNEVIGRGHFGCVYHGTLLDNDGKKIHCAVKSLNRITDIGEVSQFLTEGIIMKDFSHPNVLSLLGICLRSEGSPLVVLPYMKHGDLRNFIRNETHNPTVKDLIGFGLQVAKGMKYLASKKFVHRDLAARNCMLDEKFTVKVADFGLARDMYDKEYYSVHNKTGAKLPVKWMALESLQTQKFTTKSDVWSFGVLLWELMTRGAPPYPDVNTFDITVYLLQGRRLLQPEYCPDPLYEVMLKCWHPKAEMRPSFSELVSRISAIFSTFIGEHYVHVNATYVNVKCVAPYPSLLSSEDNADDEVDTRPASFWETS

The structures appear in SMILES notation.

Sequence of IGF1-receptor (P08069 31-1367): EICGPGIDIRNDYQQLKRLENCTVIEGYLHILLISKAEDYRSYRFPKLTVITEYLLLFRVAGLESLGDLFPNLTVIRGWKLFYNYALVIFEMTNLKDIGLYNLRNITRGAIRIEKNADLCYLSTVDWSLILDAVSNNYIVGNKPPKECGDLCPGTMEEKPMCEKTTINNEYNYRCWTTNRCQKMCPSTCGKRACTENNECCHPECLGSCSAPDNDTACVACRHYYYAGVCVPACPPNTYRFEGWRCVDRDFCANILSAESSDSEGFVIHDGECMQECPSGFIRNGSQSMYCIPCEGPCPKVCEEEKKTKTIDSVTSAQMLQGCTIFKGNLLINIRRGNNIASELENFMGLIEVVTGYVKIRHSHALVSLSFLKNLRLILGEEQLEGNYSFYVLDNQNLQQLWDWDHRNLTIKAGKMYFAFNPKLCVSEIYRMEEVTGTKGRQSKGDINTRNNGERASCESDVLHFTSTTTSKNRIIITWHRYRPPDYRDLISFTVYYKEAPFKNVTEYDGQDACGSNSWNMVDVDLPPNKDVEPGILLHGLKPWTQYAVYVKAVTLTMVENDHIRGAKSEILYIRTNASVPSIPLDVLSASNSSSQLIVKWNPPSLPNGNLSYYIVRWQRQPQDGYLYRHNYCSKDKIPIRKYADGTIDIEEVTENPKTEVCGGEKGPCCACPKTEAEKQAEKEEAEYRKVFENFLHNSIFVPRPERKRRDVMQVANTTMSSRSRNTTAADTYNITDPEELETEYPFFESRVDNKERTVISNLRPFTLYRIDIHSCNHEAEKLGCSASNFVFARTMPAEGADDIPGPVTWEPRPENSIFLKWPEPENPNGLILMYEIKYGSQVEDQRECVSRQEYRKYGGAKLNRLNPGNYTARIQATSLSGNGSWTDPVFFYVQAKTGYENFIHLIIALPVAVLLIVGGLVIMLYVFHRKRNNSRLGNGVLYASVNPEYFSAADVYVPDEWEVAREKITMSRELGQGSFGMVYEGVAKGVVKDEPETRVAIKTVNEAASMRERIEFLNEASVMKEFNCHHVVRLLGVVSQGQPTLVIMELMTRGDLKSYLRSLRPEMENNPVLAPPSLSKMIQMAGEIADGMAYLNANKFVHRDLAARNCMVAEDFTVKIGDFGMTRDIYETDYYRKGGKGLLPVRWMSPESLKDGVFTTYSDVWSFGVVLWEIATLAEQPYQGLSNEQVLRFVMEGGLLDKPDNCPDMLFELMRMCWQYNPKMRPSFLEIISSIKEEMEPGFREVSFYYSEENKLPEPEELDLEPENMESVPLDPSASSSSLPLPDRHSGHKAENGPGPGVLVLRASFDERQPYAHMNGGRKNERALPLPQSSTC

One may read the IC50 as the point on the concentration scale where inhibition reaches its midpoint. Consider `O=C(C1CCNCC1)N1CCC[C@H]1c1nc(Nc2cc(C3CC3)[nH]n2)c2cccn2n1` [Example 6, (S)-(2-(4-(5-Cyclopropyl-1H-pyrazol-3-ylamino)pyrrolo[1,2-f][1,2,4]triazin-2-yl)pyrrolidin-1-yl)(piperidin-4-yl)methanone], for which the IC50 came out at 97 nM in assay [1], 4050 nM in assay [2] and 10500 nM in assay [3].

As to `O=C(c1cc[nH]n1)N1CCC[C@H]1c1nc(Nc2cc(C3CC3)[nH]n2)c2cccn2n1` [Example 7, (S)-(2-(4-(5-Cyclopropyl-1H-pyrazol-3-ylamino)pyrrolo[1,2-f][1,2,4]triazin-2-yl)pyrrolidin-1-yl)(1H-pyrazol-3-yl)methanone], the IC50 came out at 4 nM in assay [1], 68 nM in assay [2] and 1170 nM in assay [3].

Take `O=C(c1cnccn1)N1CCC[C@@H]1c1nc(Nc2cc(C3CC3)[nH]n2)c2cccn2n1` [Example 12, (R)-(2-(4-(5-Cyclopropyl-1H-pyrazol-3-ylamino)pyrrolo[1,2-f][1,2,4]triazin-2-yl)pyrrolidin-1-yl)(pyrazin-2-yl)methanone]: the figures for the IC50 in assay [1], in assay [2] and in assay [3] were 6 nM, 4930 nM and 10800 nM, respectively.

For `O=C(c1nccs1)N1CCC[C@@H]1c1nc(Nc2cc(C3CC3)[nH]n2)c2cccn2n1` [Example 15, (R)-(2-(4-(5-Cyclopropyl-1H-pyrazol-3-ylamino)pyrrolo[1,2-f][1,2,4]triazin-2-yl)pyrrolidin-1-yl)(thiazol-2-yl)methanone], the IC50 in assay [1] is 24 nM; in assay [2], 2520 nM; in assay [3] it was 6330 nM.

The record behind these values is patent US8198438B2, “Pyrrolotriazine kinase inhibitors” (Bristol-Myers Squibb Company, priority 2007, dated 2012).
